Calls of active or inactive are those of the source. The calls are words filed in the database; no cut-off is given here.
How the values were obtained:
A549 = assay: Antiproliferative activity against human A549 cells after 48 hrs by MTT assay; format: functional, cell-based; conditions: A549, 48 h
[1] = Antiproliferative activity against human BCG823 cells after 48 hrs by MTT assay; format: functional, cell-based; conditions: BCG823, 48 h
HepG2 [2] = assay: Antiproliferative activity against human HepG2 cells after 48 hrs by MTT assay; format: functional, cell-based; conditions: HepG2, 48 h
HepG2 [3] = assay: Induction of apoptosis in human HepG2 cells assessed as karyopyknosis at 0.75 to 3 uM after 72 hrs by DAPI staining-based fluorescent microscopic analysis; format: functional, cell-based
HepG2 [4] = assay: Induction of apoptosis in human HepG2 cells assessed as chromatin condensation at 0.75 to 3 uM after 72 hrs by DAPI staining-based fluorescent microscopic analysis; format: functional, cell-based
HepG2 [5] = assay: Induction of apoptosis in human HepG2 cells assessed as necrotic cells at 3 uM after 72 hrs by annexin V and propidium iodide staining-based flow cytometric analysis (reference value: 2.7 +/- 0.1%); format: functional
HepG2 [6] = assay: Induction of apoptosis in human HepG2 cells assessed as viable cells at 3 uM after 72 hrs by annexin V and propidium iodide staining-based flow cytometric analysis (reference value: 94.5 +/- 0.6%); format: functional; conditions: HepG2, 72 h, read-out: Activity
HepG2 [7] = assay: Induction of apoptosis in human HepG2 cells assessed as early apoptotic cells at 1.5 uM after 72 hrs by annexin V and propidium iodide staining-based flow cytometric analysis (reference value: 1.4 +/- 0.1%); format: functional
HepG2 [8] = assay: Induction of apoptosis in human HepG2 cells assessed as early apoptotic cells at 0.75 uM after 72 hrs by annexin V and propidium iodide staining-based flow cytometric analysis (reference value: 1.4 +/- 0.1%); format: functional
HepG2 [9] = assay: Induction of apoptosis in human HepG2 cells assessed as necrotic cells at 1.5 uM after 72 hrs by annexin V and propidium iodide staining-based flow cytometric analysis (reference value: 2.7 +/- 0.1%); format: functional
HepG2 [10] = assay: Induction of apoptosis in human HepG2 cells assessed as necrotic cells at 0.75 uM after 72 hrs by annexin V and propidium iodide staining-based flow cytometric analysis (reference value: 2.7 +/- 0.1%); format: functional
HepG2 [11] = assay: Induction of apoptosis in human HepG2 cells assessed as late apoptotic cells at 3 uM after 72 hrs by annexin V and propidium iodide staining-based flow cytometric analysis (reference value: 1.4 %); format: functional
HepG2 [12] = assay: Induction of apoptosis in human HepG2 cells assessed as early apoptotic cells at 3 uM after 72 hrs by annexin V and propidium iodide staining-based flow cytometric analysis (reference value: 1.4 +/- 0.1%); format: functional
HepG2 [13] = assay: Induction of apoptosis in human HepG2 cells assessed as late apoptotic cells at 0.75 uM after 72 hrs by annexin V and propidium iodide staining-based flow cytometric analysis (reference value: 1.4 %); format: functional
HepG2 [14] = assay: Induction of apoptosis in human HepG2 cells assessed as viable cells at 0.75 uM after 72 hrs by annexin V and propidium iodide staining-based flow cytometric analysis (reference value: 94.5 +/- 0.6%); format: functional; conditions: HepG2, 72 h, read-out: Activity
HepG2 [15] = assay: Induction of apoptosis in human HepG2 cells assessed as late apoptotic cells at 1.5 uM after 72 hrs by annexin V and propidium iodide staining-based flow cytometric analysis (reference value: 1.4 %); format: functional
HepG2 [16] = assay: Induction of apoptosis in human HepG2 cells assessed as viable cells at 1.5 uM after 72 hrs by annexin V and propidium iodide staining-based flow cytometric analysis (reference value: 94.5 +/- 0.6%); format: functional; conditions: HepG2, 72 h, read-out: Activity

| IC50 (A549) | IC50 (HepG2 [2]) | Compound | IC50 [1] | also measured |
| --- | --- | --- | --- | --- |
| 25 µM | 19.8 µM | COc1cc2oc(-c3ccccc3)cc(=O)c2c(O)c1OCCCCN1CCOCC1 | 27.2 µM | – |
| 6 µM | 4.3 µM | COc1cc2oc(-c3ccccc3)cc(=O)c2c(O)c1OCCCN1CCCC1 | 6.5 µM | – |
| 34 µM | 21 µM | COc1cc2oc(-c3ccccc3)cc(=O)c2c(O)c1OCCCCN1CCCCC1 | 21.9 µM | – |
| 32 µM | 36.7 µM | COc1cc2oc(-c3ccccc3)cc(=O)c2c(O)c1OCCCCN1CCN(C)CC1 | 53.5 µM | – |
| 14 µM | 9.2 µM | COc1cc2oc(-c3ccccc3)cc(=O)c2c(O)c1OCCCN1CCOCC1 | 43.1 µM | – |
| 51.3 µM | 69 µM | COc1cc2oc(-c3ccccc3)cc(=O)c2c2c1OCCCO2 | > 100 µM | – |
| 17 µM | 22.3 µM | COc1cc2oc(-c3ccccc3)cc(=O)c2c(O)c1OCCCN1CCCCC1 | 25.3 µM | – |
| > 100 µM | 67.2 µM | O=c1cc(-c2ccccc2)oc2cc(O)c(OCCCCN3CCOCC3)c(O)c12 | 58.7 µM | – |
| > 100 µM | > 100 µM | COc1cc2oc(-c3ccccc3)cc(=O)c2c2c1OCCCCO2 | > 100 µM | – |
| 13 µM | 4.9 µM | COc1cc2oc(-c3ccccc3)cc(=O)c2c(O)c1OCCCCN1CCCC1 | 10.6 µM | – |
| 18 µM | 15.1 µM | COc1cc2oc(-c3ccccc3)cc(=O)c2c(O)c1OCCCN1CCN(C)CC1 | 31.3 µM | – |
| 13 µM | 28.3 µM | O=c1cc(-c2ccccc2)oc2cc(O)c(O)c(O)c12 [BAICALEIN] | 19.1 µM | – |

Second part, the compound before the results:

| Compound | IC50 (A549) | IC50 (HepG2 [2]) | IC50 [1] | also measured |
| --- | --- | --- | --- | --- |
| O=c1cc(-c2ccccc2)oc2cc(OCc3ccccc3)c(OCCCCN3CCOCC3)c(O)c12 | > 100 µM | > 100 µM | 83.6 µM | – |
| O=c1cc(-c2ccccc2)oc2cc(OCc3ccccc3)c(OCCCN3CCCC3)c(O)c12 | 1.4 µM | 4.2 µM | > 100 µM | – |
| O=c1cc(-c2ccccc2)oc2cc(O)c(OCCCN3CCOCC3)c(O)c12 | > 100 µM | 86.2 µM | 88.3 µM | – |
| O=c1cc(-c2ccccc2)oc2cc(O)c(OCCCCN3CCCC3)c(O)c12 | 51 µM | > 100 µM | 86.4 µM | – |
| CN(C)CCCOc1c(OCc2ccccc2)cc2oc(-c3ccccc3)cc(=O)c2c1O | 2.6 µM | 2.2 µM | 5.5 µM | – |
| O=c1cc(-c2ccccc2)oc2cc(OCc3ccccc3)c(OCCCCN3CCCC3)c(O)c12 | 0.8 µM | 2 µM | 3.2 µM | Activity (HepG2 [3]): Active; Activity (HepG2 [4]): Active; Activity (HepG2 [5]): 8.3%; viability at 3 µM (HepG2 [6]): 11.1%; Activity (HepG2 [7]): 5.1%; Activity (HepG2 [8]): 3.2%; Activity (HepG2 [9]): 11.1%; Activity (HepG2 [10]): 5.2%; Activity (HepG2 [11]): 50.6%; Activity (HepG2 [12]): 30%; Activity (HepG2 [13]): 2.2%; viability at 0.75 µM (HepG2 [14]): 89.5%; Activity (HepG2 [15]): 6.3%; viability at 1.5 µM (HepG2 [16]): 77.5% |
| O=c1cc(-c2ccccc2)oc2cc(O)c(OCCCN3CCCC3)c(O)c12 | > 100 µM | > 100 µM | > 100 µM | – |
| CCN(CC)CCCOc1c(OC)cc2oc(-c3ccccc3)cc(=O)c2c1O | 4.9 µM | 3.7 µM | 5.7 µM | – |
| O=c1cc(-c2ccccc2)oc2cc(O)c(OCCCCN3CCCCC3)c(O)c12 | 75 µM | > 100 µM | 52.7 µM | – |
| CCN(CC)CCCCOc1c(OC)cc2oc(-c3ccccc3)cc(=O)c2c1O | 35 µM | 7.1 µM | 17.4 µM | – |
| O=c1cc(-c2ccccc2)oc2cc(OCc3ccccc3)c(OCCCN3CCCCC3)c(O)c12 | 3.1 µM | 2.2 µM | 4.6 µM | – |
| O=c1cc(-c2ccccc2)oc2cc(O)c(OCCCN3CCCCC3)c(O)c12 | > 100 µM | 70.6 µM | 60.9 µM | – |
| CN1CCN(CCCCOc2c(OCc3ccccc3)cc3oc(-c4ccccc4)cc(=O)c3c2O)CC1 | 4.4 µM | 2.5 µM | 7.2 µM | – |
| CCN(CC)CCCCOc1c(OCc2ccccc2)cc2oc(-c3ccccc3)cc(=O)c2c1O | 1.8 µM | 2.2 µM | 4.2 µM | – |
| O=c1cc(-c2ccccc2)oc2cc(OCc3ccccc3)c(OCCCCN3CCCCC3)c(O)c12 | 1.9 µM | 2.4 µM | 3 µM | – |
| CN1CCN(CCCOc2c(OCc3ccccc3)cc3oc(-c4ccccc4)cc(=O)c3c2O)CC1 | 1.3 µM | 2.4 µM | 4.1 µM | – |
| O=c1cc(-c2ccccc2)oc2cc(OCc3ccccc3)c(OCCCN3CCOCC3)c(O)c12 | > 100 µM | 75.8 µM | 51.4 µM | – |
| CN1CCN(CCCCOc2c(O)cc3oc(-c4ccccc4)cc(=O)c3c2O)CC1 | > 100 µM | 93.7 µM | 82.9 µM | – |
